{"source": "ChEMBL document CHEMBL5108004", "about": "“An auristatin-based peptide-drug conjugate targeting Kita-Kyushu lung cancer antigen 1 for precision chemoradiotherapy in gastric cancer” (Eur J Med Chem, 2022)", "key": {"[1]": {"experiment": "Toxicity in male BALB/c nude mouse xenografted with KK-LC-1-positive human MKN-45 cells assessed as effect on liver function at 0.3 mg/kg, iv administered twice a week for 3 weeks", "type": "organism-based", "settings": "in vivo, 504 h"}, "[2]": {"experiment": "Toxicity in male BALB/c nude mouse xenografted with KK-LC-1-positive human MKN-45 cells assessed as effect on liver function at 1 mg/kg, iv administered twice a week for 3 weeks", "type": "organism-based", "settings": "in vivo, 504 h"}, "[3]": {"experiment": "Toxicity in male BALB/c nude mouse xenografted with KK-LC-1-positive human MKN-45 cells assessed as body weight loss at 2 mg/kg, iv administered twice a week for 3 weeks", "type": "organism-based", "settings": "in vivo, 504 h"}, "[4]": {"system": "HGC-27", "experiment": "Cytotoxicity against KK-LC-1-negative human HGC-27 cells incubated for 72 hrs by CCK-8 assay", "type": "functional, cell-based", "settings": "HGC-27, 72 h"}, "[5]": {"experiment": "Toxicity in male BALB/c nude mouse xenografted with KK-LC-1-positive human MKN-45 cells assessed as body weight loss at 3 mg/kg, iv administered twice a week for 3 weeks", "type": "organism-based", "settings": "in vivo, 504 h"}, "[6]": {"experiment": "Toxicity in male BALB/c nude mouse xenografted with KK-LC-1-positive human NUGC-4 cells assessed as effect on body weight at 0.3 mg/kg, iv administered once a week for 3 weeks followed by exposure to 2 Gy gamma irradiation for 2 consecutive days once a week for 3 weeks", "type": "organism-based", "settings": "in vivo, 504 h"}, "[7]": {"experiment": "Toxicity in male BALB/c nude mouse xenografted with KK-LC-1-positive human MKN-45 cells assessed as body weight loss at 1 mg/kg, iv administered twice a week for 3 weeks", "type": "organism-based", "settings": "in vivo, 504 h"}, "[8]": {"experiment": "Toxicity in male BALB/c nude mouse xenografted with KK-LC-1-positive human MKN-45 cells assessed as effect on kidney function at 2 mg/kg, iv administered twice a week for 3 weeks", "type": "organism-based", "settings": "in vivo, 504 h"}, "[9]": {"system": "NUGC-4", "experiment": "Cell cycle arrest in KK-LC-1-positive human NUGC-4 cells assessed as accumulation at G2/M phase at 100 nM measured after 24 hrs by propidium iodide staining based flow cytometric analysis (reference value: 21.5 +/- 0.7 %)", "type": "functional"}, "[10]": {"system": "MKN-45", "experiment": "Inhibition of colony formation in KK-LC-1-positive human MKN-45 cells assessed as decrease in colonies incubated for 24 hrs followed by exposure to 2 Gy gamma irradiation by crystal violet staining based clonogenic assay", "type": "functional, cell-based"}, "[11]": {"experiment": "Toxicity in male BALB/c nude mouse xenografted with KK-LC-1-positive human NUGC-4 cells assessed as mouse survival at 0.3 mg/kg, iv administered once a week for 3 weeks followed by exposure to 2 Gy gamma irradiation for 2 consecutive days once a week for 3 weeks measured after 47 days", "type": "organism-based", "settings": "in vivo"}, "[12]": {"system": "NUGC-4", "experiment": "Antitumor activity against KK-LC-1-positive human NUGC-4 cells xenografted in male BALB/c nude mouse assessed as decrease in Ki67 at 0.3 mg/kg, iv administered once a week for 3 weeks followed by exposure to 2 Gy gamma irradiation for 2 consecutive days once a week for 3 weeks measured by immunohistochemical staining analysis", "type": "functional, organism-based"}, "[13]": {"experiment": "Toxicity in male BALB/c nude mouse xenografted with KK-LC-1-positive human MKN-45 cells assessed as effect on kidney function at 1 mg/kg, iv administered twice a week for 3 weeks", "type": "organism-based", "settings": "in vivo, 504 h"}, "[14]": {"system": "NUGC-4", "experiment": "Antitumor activity against KK-LC-1-positive human NUGC-4 cells xenografted in male BALB/c nude mouse assessed as reduction in tumor burden at 0.3 mg/kg, iv administered once a week for 3 weeks followed by exposure to 2 Gy gamma irradiation for 2 consecutive days once a week for 3 weeks", "type": "functional, organism-based"}, "[15]": {"experiment": "Biodistribution in tumor of nude mouse xenografted with KK-LC-1-positive human NUGC-4 cells using Cy5-labeled compound at 10 nmol, iv and measured after 24 hrs by near-infrared imaging method", "type": "ADME, organism-based, Neoplasm", "settings": "in vivo"}, "[16]": {"experiment": "Toxicity in male BALB/c nude mouse xenografted with KK-LC-1-positive human NUGC-4 cells assessed as median survival time at 0.3 mg/kg, iv administered once a week for 3 weeks", "type": "organism-based", "settings": "in vivo, 504 h"}, "[17]": {"molecular_target": "T1, Kita-kyushu lung cancer antigen 1 (Homo sapiens) (UniProt Q5H943)", "T1 sequence (whole entry)": "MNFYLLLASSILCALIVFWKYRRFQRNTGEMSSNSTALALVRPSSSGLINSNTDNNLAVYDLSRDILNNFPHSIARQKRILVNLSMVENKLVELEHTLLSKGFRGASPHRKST", "experiment": "Binding affinity to recombinant KK-LC-1 (unknown origin) using FITC-labeled compound at 0.1 to 1000 uM incubated for 2 hrs and measured by FLISA assay", "settings": "dose 0.1-1000 µM"}, "[18]": {"system": "MKN-45", "experiment": "Antitumor activity against KK-LC-1-positive human MKN-45 cells xenografted in male BALB/c nude mouse assessed as induction of tumor regression at 1 mg/kg, iv administered twice a week for 3 weeks", "type": "functional, organism-based"}, "[19]": {"system": "NUGC-4", "experiment": "Inhibition of colony formation in KK-LC-1-positive human NUGC-4 cells assessed as decrease in colonies incubated for 24 hrs followed by exposure to 2 Gy gamma irradiation by crystal violet staining based clonogenic assay", "type": "functional, cell-based"}, "[20]": {"system": "NUGC-4", "experiment": "Cell cycle arrest in KK-LC-1-positive human NUGC-4 cells assessed as accumulation at G2/M phase at 40 nM measured after 24 hrs by propidium iodide staining based flow cytometric analysis (reference value: 21.5 +/- 0.7 %)", "type": "functional"}, "[21]": {"system": "NUGC-4", "experiment": "Induction of apoptosis in KK-LC-1-positive human NUGC-4 cells at 100 nM incubated for 24 hrs followed by exposure to 2 Gy gamma irradiation by AnnexinV/PI-staining based flow cytometry", "type": "functional, cell-based"}, "[22]": {"experiment": "Toxicity in male BALB/c nude mouse xenografted with KK-LC-1-positive human NUGC-4 cells assessed as median survival time at 0.3 mg/kg, iv administered once a week for 3 weeks followed by exposure to 2 Gy gamma irradiation for 2 consecutive days once a week for 3 weeks measured after 47 days", "type": "organism-based", "settings": "in vivo, 504 h"}, "[23]": {"experiment": "Stability in human plasma assessed as compound remaining at 500 uM measured after 48 hrs by HPLC analysis", "type": "ADME, cell-free", "settings": "read-out: Stability"}, "[24]": {"molecular_target": "T1, Kita-kyushu lung cancer antigen 1 (Homo sapiens)", "experiment": "Binding affinity to KK-LC-1 in KK-LC-1-positive human NUGC-4 cells using FITC-labeled compound at 1 to 1000 uM incubated for 30 mins and measured by flow cytometry assay", "type": "cell-based", "settings": "dose 1-1000 µM"}, "[25]": {"system": "MKN-45", "experiment": "Cell cycle arrest in KK-LC-1-positive human MKN-45 cells assessed as increase accumulation at G2/M phase at 20 to 100 nM measured after 24 hrs by propidium iodide staining based flow cytometric analysis", "type": "functional", "settings": "dose 20-100 nM, DDE = dose-dependent effect"}}, "note": "The source made the active and inactive calls. The calls are words filed in the database; no cut-off is given here. *1 amine or outer side, *2 acyl side, *3 side chain or, on linkers, in order; H or OH if unused. Where a SMILES comes first, the peptide text is derived from it. Bridges are numbered along the chain shown (N, C = ends). Roman numbers before positions name the chains, in order. [ ]: non-standard residue; d: D form. The star is where a group is joined. Hexanoyl(6-succinimido-3yl) = O=C1CC([*:1])C(=O)N1CCCCCC(=O)[*:2]; Dolaproine = CO[C@@H]([C@@H]1CCCN1)[C@@H](C)C(=O)O; Dil = CC[C@H](C)[C@H](NC)[C@@H](CC(=O)O)OC; PABC = O=C(OCc1ccc(N[*:1])cc1)[*:2]; X1 = C[C@@H](N*)[C@@H](O)c1ccccc1; Cit = NC(=O)NCCC[C@H](N)C(=O)O; NMeV = CN[C@H](C(=O)O)C(C)C"}
{"smiles": "CC[C@H](C)[C@@H]([C@@H](CC(=O)N1CCC[C@H]1[C@H](OC)[C@@H](C)C(=O)N[C@H](C)[C@@H](O)c1ccccc1)OC)N(C)C(=O)[C@@H](NC(=O)[C@@H](NC(=O)[C@H](C(C)C)N(C)C(=O)OCc1ccc(NC(=O)[C@H](CCCNC(N)=O)NC(=O)[C@@H](NC(=O)CCCCCN2C(=O)CC(SC[C@H](N)C(=O)N[C@H]3CSSC[C@@H](C(=O)O)NC(=O)[C@H]([C@@H](C)O)NC(=O)[C@H]([C@@H](C)O)NC(=O)[C@H](CC(C)C)NC(=O)[C@H](C)NC(=O)[C@H]([C@@H](C)O)NC(=O)[C@H](CC(N)=O)NC(=O)[C@H](CCCCN)NC3=O)C2=O)C(C)C)cc1)C(C)C)C(C)C", "note": "(stereo not given in full) (I: H-CCKNTALTTC-OH / II: V[Cit][PABC][NMeV]VV[Dil][Dolaproine]-X1; linker I:1-II:N via Hexanoyl(6-succinimido-3yl); disulfide I:2-I:10)", "values": [{"measurement": "Activity", "setting": "[1]", "result": "Non-Toxic"}, {"measurement": "Activity", "setting": "[2]", "result": "Non-Toxic"}, {"measurement": "Activity", "setting": "[3]", "result": "Non-Toxic"}, {"measurement": "IC50", "setting": "[4]", "result": 786, "unit": "nM"}, {"measurement": "Activity", "setting": "[5]", "result": "Toxic"}, {"measurement": "Activity", "setting": "[6]", "result": "Non-Toxic"}, {"measurement": "Activity", "setting": "[7]", "result": "Non-Toxic"}, {"measurement": "Activity", "setting": "[8]", "result": "Non-Toxic"}, {"measurement": "Activity", "setting": "[9]", "result": 67.4, "unit": "%"}, {"measurement": "inhibition", "setting": "[10]", "result": "Active"}, {"measurement": "survival at 504 h", "setting": "[11]", "result": 83.3, "unit": "%"}, {"measurement": "Activity", "setting": "[12]", "result": "Active"}, {"measurement": "Activity", "setting": "[13]", "result": "Non-Toxic"}, {"measurement": "Activity", "setting": "[14]", "result": "Active"}, {"measurement": "Drug uptake", "setting": "[15]", "result": "Active"}, {"measurement": "MST", "setting": "[16]", "result": 40, "unit": "days"}, {"measurement": "Activity", "setting": "[17]", "result": "Active"}, {"measurement": "Activity", "setting": "[18]", "result": "Active"}, {"measurement": "inhibition", "setting": "[19]", "result": "Active"}, {"measurement": "Activity", "setting": "[20]", "result": 49.53, "unit": "%"}, {"measurement": "Activity", "setting": "[21]", "result": "Active"}, {"measurement": "MST", "setting": "[22]", "result": 58, "unit": "days"}, {"measurement": "remaining at 48 h, 500 µM", "setting": "[23]", "result": 13.2, "unit": "%"}, {"measurement": "Activity", "setting": "[24]", "result": "Active"}, {"measurement": "Activity", "setting": "[25]", "result": "Dde"}]}
